Assay results from US7989480B2, “Aryl amino acid derivatives as inhibitors for treating inflammation” (Decode Genetics EHF, priority 2006, dated 2011).
Counter-ions that a name gives are not always drawn. Like-named read-outs stand apart in the source and are kept apart here.

Legend:
hWB = hWB assay; assay type: cell-based; conditions: Homo sapiens
[1] = target: T1, LTA4H (leukotriene A4 hydrolase) (Homo sapiens, UniProt P09960); experiment: LTA4H enzyme inhibition (EnzIC50); assay type: biochemical
T1 sequence (P09960 1-611): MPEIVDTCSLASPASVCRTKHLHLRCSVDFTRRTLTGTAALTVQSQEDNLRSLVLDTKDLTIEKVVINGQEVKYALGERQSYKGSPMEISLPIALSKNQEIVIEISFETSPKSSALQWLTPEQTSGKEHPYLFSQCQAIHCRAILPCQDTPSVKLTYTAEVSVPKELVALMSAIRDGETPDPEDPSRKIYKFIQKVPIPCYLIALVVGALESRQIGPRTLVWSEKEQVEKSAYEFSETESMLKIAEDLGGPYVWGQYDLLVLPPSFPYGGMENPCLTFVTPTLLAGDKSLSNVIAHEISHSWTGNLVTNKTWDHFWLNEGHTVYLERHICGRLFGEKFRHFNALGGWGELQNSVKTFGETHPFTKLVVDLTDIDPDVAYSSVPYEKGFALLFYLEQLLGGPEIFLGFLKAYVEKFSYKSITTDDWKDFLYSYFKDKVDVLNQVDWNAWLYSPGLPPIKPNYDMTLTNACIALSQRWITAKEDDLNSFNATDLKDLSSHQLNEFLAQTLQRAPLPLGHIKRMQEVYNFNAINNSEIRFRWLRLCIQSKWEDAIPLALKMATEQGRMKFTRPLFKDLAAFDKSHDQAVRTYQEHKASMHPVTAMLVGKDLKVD

[2] = system: ionophore-induced LTB4 production; conditions: oral administration, rat peritoneum in vivo; cited from earlier work
colitis symptoms = conditions: eight weeks of treatment, primate model; cited from earlier work
[3] = system: ionophore-induced LTB4 production; conditions: oral administration, mouse blood ex vivo; cited from earlier work

Compound | IC50 (hWB) | IC50 [1] | other results
CC(=O)N(O)C[C@@H](N)Cc1ccc(Oc2ccc(Cl)cc2)cc1 [Example 22, N-{(S)-2-amino-3-[4-(4-chloro-phenoxy)-phenyl]-propyl}-N-hydroxy-acetamide HCl salt] | < 5 µM | < 5 µM | 
COc1ccc(Oc2ccc(C[C@H](N)CO)cc2)cc1 [Example 19, (S)-2-Amino-3-[4-(4-methoxyphenoxy)-phenyl]-propan-1-ol hydrochloric acid salt] |  | < 5 µM | 
COC(=O)[C@H](N)Cc1ccc(Oc2ccc(C(=O)c3ccccc3)cc2)cc1 [Example 2, (R)-2-Amino-3-[4-(4-benzoyl-phenoxy)-phenyl]-propionic acid methyl ester hydrochloride] |  | < 5 µM | 
N[C@H](CNO)Cc1ccc(Oc2ccc(Oc3ccc(Cl)cc3)cc2)cc1 [Example 14] | < 5 µM | < 5 µM | 
N[C@@H](Cc1ccc(Oc2ccc(Cc3ccc(Cl)cc3)cc2)cc1)C(=O)O [Example 5, S)-2-Amino-3-{4-[4-(4-chloro-benzyl)-phenoxy]-phenyl}-propionic acid hydrochloride] |  | 5 to 20 µM | 
N[C@H](CNO)Cc1ccc(Oc2ccc(Cl)cc2)cc1 [Example 21, N-{(S)-2-amino-3-[4-(4-chloro-phenoxy)-phenyl]-propyl}-hydroxyamine HCl salt] |  | < 5 µM | 
N[C@@H](C(=O)O)c1ccc(Oc2ccc(Cc3ccccc3)cc2)cc1 [Example 15, (R)-Amino-[4-(4-benzyl-phenoxy)-phenyl]-acetic acid hydrochloride] |  | < 5 µM | 
CN(CCCOc1ccc(Cc2ccccc2)cc1)CCC(=O)O.Cl [SC57461] |  |  | inhibition of ionophore-induced LTB4 production [2]: inhibition of ionophore-induced LTB4 production; colitis symptoms (colitis symptoms): significantly improved colitis symptoms; inhibition of ionophore-induced LTB4 production [3]: inhibition of ionophore-induced LTB4 production
N[C@@H](Cc1ccc(Oc2ccc(Oc3ccc(-c4nccs4)cc3)cc2)cc1)C(=O)O [Example 11, (S)-2-Amino-3-{4-[4-(4-thiazol-2-yl-phenoxy)-phenoxy]-phenyl}-propionic acid] |  | < 5 µM | 
N[C@H](CO)Cc1ccc(Oc2ccc(Oc3ccc(-c4nccs4)cc3)cc2)cc1 [Example 12, (S)-2-Amino-3-{4-[4-(4-thiazol-2-yl-phenoxy)-phenoxy]-phenyl}-propan-1-ol] | < 5 µM | < 5 µM | 

Second part, led by results:

IC50 (hWB) | IC50 [1] | Compound | other results
 | 5 to 20 µM | CN[C@H](CO)Cc1ccc(Oc2ccc(Oc3ccccc3)cc2)cc1 [Example 8, (2S)-2-(Methylamino)-3-[4-(4-phenoxyphenoxy)phenyl]propan-1-ol hydrochloride] | 
 | 5 to 20 µM | CN[C@H](CO)Cc1ccc(Oc2ccc(Cc3ccccc3)cc2)cc1 [Example 9, (2S)-3-[4-(4-Benzylphenoxy)phenyl]-2-(methylamino)propan-1-ol hydrochloride] | 
 | 5 to 20 µM | COC(=O)[C@H](N)Cc1ccc(Oc2ccc(Oc3ccccc3)cc2)cc1 [Example 1, (R)-2-Amino-3-[4-(4-phenoxy-phenoxy)-phenyl]-propionic acid methyl ester hydrochloride] | 
 | < 5 µM | N[C@@H](CO)Cc1ccc(Oc2ccc(Oc3ccccc3)cc2)cc1 [Example 3, (R)-2-Amino-3-[4-(4-phenoxy-phenoxy)-phenyl]-propan-1-ol hydrochloride] | 
5 to 20 µM | < 5 µM | N[C@H](CO)Cc1ccc(Oc2ccc(Oc3ccccc3)cc2)cc1 [Example 4, (S)-2-Amino-3-[4-(4-phenoxy-phenoxy)-phenyl]-propan-1-ol hydrochloride] | 
< 5 µM | < 5 µM | N[C@H](CO)Cc1ccc(Oc2ccc(Cc3ccccc3)cc2)cc1 [Example 20, (S)-2-Amino-3-[4-(4-benzylphenoxy)-phenyl]-propan-1-ol hydrochloric acid salt] | 
< 5 µM | < 5 µM | N[C@@H](Cc1ccc(Oc2ccc(Oc3ccccc3)cc2)cc1)C(=O)O [Example 6, (2S)-2-Amino-3-[4-(4-phenoxyphenoxy)phenyl]propanoic acid hydrochloride] | 
 | < 5 µM | N[C@@H](Cc1ccc(Oc2ccc(Oc3ccccc3)cc2)cc1)C(O)C(=O)O (stereo partly drawn) [Example 10, (3S)-3-Amino-2-hydroxy-4-[4-(4-phenoxyphenoxy)phenyl]butanoic acid hydrochloride] | 
